≈ marks a conversion by molar mass, not a printed value.
conditions: buffer; pH 7.4; 200.0 µM

solubility kinetic	SMILES
12.1 µg/mL (≈ 58.3 µM)	Cc1[nH]c2ccccc2c1C(=O)CCl
32.6 µg/mL (≈ 77.2 µM)	O=C(COC(=O)COc1cccc(Br)c1)NCc1ccc2c(c1)OCO2
> 29 µg/mL	C/C(=N\O)c1ccc2c(c1)OCCO2
> 41.3 µg/mL	COCC(=O)N1CCN(c2nc3ccccc3o2)CC1
37.6 µg/mL (≈ 128 µM)	Cc1ccc(S(=O)(=O)CC(=O)Nc2cc(C)on2)cc1
> 42 µg/mL	Cc1cc(Br)ccc1NC(=O)c1ccco1
20.5 µg/mL (≈ 64.2 µM)	CCc1cc2c(=O)n(CC(=O)NC3CCCCC3)cnc2s1
37 µg/mL (≈ 118 µM)	CCOC(=O)C1CCN(C(=O)c2cc3cc(C)ccc3[nH]2)CC1
6 µg/mL (≈ 15.4 µM)	CN1C(=O)/C(=C2\SC(=S)N(CCCCCC(=O)O)C2=O)c2ccccc21
16.9 µg/mL (≈ 48.7 µM)	CCC(C(=O)OC(C)C(=O)Nc1ccc(Cl)cn1)c1ccccc1 (stereo unspecified)
0.7 µg/mL (≈ 2.34 µM)	O=C1NC(=Nc2cccnc2)S/C1=C/c1ccc(F)cc1
50.5 µg/mL (≈ 132 µM)	O=C(CNC(=O)c1ccc(Br)o1)NC12CC3CC(CC(C3)C1)C2
> 53.3 µg/mL	CN1CCN(C(=O)/C(=C\c2cccs2)NC(=O)c2ccccc2)CC1
> 32.6 µg/mL	O=C(Nc1ccc(F)cc1)c1cccnn1
5.9 µg/mL (≈ 21.7 µM)	Nc1ncc2c(n1)CCN(c1ccc([N+](=O)[O-])cc1)C2
> 50.7 µg/mL	CC(=O)N1CCC(N(C(=O)Nc2ccc(Cl)cc2)C(C)C)CC1
41.8 µg/mL (≈ 133 µM)	CCN(CC)CC(O)COC(c1ccccc1)c1ccccc1 (stereo unspecified)
> 44.9 µg/mL	Cc1ccnc(SCC(=O)N2CCCc3ccccc32)n1
44.6 µg/mL (≈ 141 µM)	NC(=O)CSc1ccc(S(=O)(=O)N2CCCCC2)cn1
5.9 µg/mL (≈ 25.3 µM)	c1cc2c(cc1NC1CCCCCC1)OCO2
< 0.4 µg/mL	CCC(=O)c1cn(CC(=O)Nc2cccc(OC)c2)c2ccccc12

solubility kinetic	SMILES
> 37 µg/mL	O=C(Cc1ccccc1)Nc1ncccc1Cl
37.4 µg/mL (≈ 101 µM)	CSc1nc(SCCN(C)C)c2c3c(sc2n1)COC(C)(C)C3
62.3 µg/mL (≈ 124 µM)	CCOc1ccc(C(=O)N[C@H](C(=O)Nc2ccc(S(=O)(=O)Nc3nccs3)cc2)C(C)C)cc1
42.1 µg/mL (≈ 133 µM)	Cc1ccc(C)c(OCc2cc(C(=O)N3CCOCC3)no2)c1
> 48.8 µg/mL	CCCS(=O)(=O)N1CCCC(C(=O)c2ccccc2OC)C1 (stereo unspecified)
> 32.7 µg/mL	O=C(Cc1ccccc1)Nc1nccs1
> 48.7 µg/mL	CN1CCN(C=Nc2nc3ccccc3nc2N2CCCC2)CC1
> 44.1 µg/mL	O=C(Nc1ccccc1)c1cn(CCBr)cn1
> 47.9 µg/mL	CCCC(C)NC(=O)c1sc2nc3n(c(=O)c2c1C)CCC3 (stereo unspecified)
8.5 µg/mL (≈ 31.8 µM)	Cc1cccc(NC(=O)C(C)C(=O)c2ccccc2)c1 (stereo unspecified)
40.4 µg/mL (≈ 145 µM)	Cn1cccc1C(C#N)(CC#N)c1cccc(F)c1C#N (stereo unspecified)
> 43.8 µg/mL	CC(=O)N1CCN(c2ccc(C(N)=O)cc2[N+](=O)[O-])CC1
32.3 µg/mL (≈ 113 µM)	Cc1ccc(N2C(=O)C3CCC(C)(C2=O)C3(C)C)cc1C (stereo unspecified)
13.7 µg/mL (≈ 45.8 µM)	CCOC(OCC)c1ccc(/C=C\c2nccc(N)n2)cc1
8.1 µg/mL (≈ 23.8 µM)	CCOc1ncccc1C(=O)OCC(=O)Nc1ccc2c(c1)CCC2
< 0.3 µg/mL	O=[N+]([O-])c1cccc(S(=O)(=O)N2CCc3ccccc3C2)c1
> 53 µg/mL	CCN(CC(=O)NCC(=O)Nc1cccc(C)c1C)Cc1ccccc1
> 38.3 µg/mL	CCc1noc(C)c1C(=O)Nc1ccc(C#N)cc1
> 53.8 µg/mL	O=C(c1ccccc1NS(=O)(=O)c1ccccc1)N1CCCCCC1
61.5 µg/mL (≈ 126 µM)	CC(=O)c1cccc(OCC(=O)OCC(=O)Nc2cc(S(=O)(=O)N3CCCCC3)ccc2C)c1
3.4 µg/mL (≈ 12.3 µM)	Cc1ccc(OCC(=O)NC2CCCCCC2)cc1C

solubility kinetic	SMILES
45.6 µg/mL (≈ 139 µM)	COc1cc2c(cc1OC)C(c1ccc([N+](=O)[O-])cc1)NC(=O)C2 (stereo unspecified)
> 51.4 µg/mL	CCOc1ccc(CN(C)CC(=O)Nc2cccc(C)c2)cc1OC
12.2 µg/mL (≈ 36.9 µM)	COc1ccc(OC)c(Nc2c3ccccc3nc3ccccc23)c1
> 43.7 µg/mL	CCc1ccc(NC(=S)NCC2CCCN2CC)cc1 (stereo unspecified)
33.6 µg/mL (≈ 147 µM)	Cc1ccc(C(=O)NCc2ccco2)c(C)c1
22.1 µg/mL (≈ 135 µM)	O=[N+]([O-])c1cnc2ccccn12
> 47.8 µg/mL	CCCN1CCN(CCNC(=O)Nc2cc(C)ccc2C)CC1
7.1 µg/mL (≈ 16.2 µM)	NS(=O)(=O)c1cccc(NC(=O)c2ccc(S(=O)(=O)N3CCCCCC3)cc2)c1
> 38.6 µg/mL	Cc1cc(C)c2c(CC(=O)N3CCCC3)coc2c1
< 0.3 µg/mL	Cn1c(SCc2ccccc2F)nc2ccccc2c1=O
24.7 µg/mL (≈ 138 µM)	CCNc1nc2cccnc2s1
5.1 µg/mL (≈ 17.6 µM)	Cc1sc(NC(=O)Nc2ccccc2)c(C(N)=O)c1C
1.5 µg/mL (≈ 5.47 µM)	C/C(N)=C(/C#N)C(=O)COC(=O)c1cccc(C)c1O
6.3 µg/mL	COC(=O)c1ccccc1NC(=O)NCCc1ccccc1OC.Cl
8.2 µg/mL (≈ 25 µM)	O=C(COc1ccc(Cl)cc1Cl)OCC(=O)c1ccc[nH]1
6.6 µg/mL (≈ 17.2 µM)	O=C(CCCOC(=O)c1cccnc1Cl)c1ccc(Br)cc1
> 41.3 µg/mL	CC1(C)CC(=O)C=C(Nc2ccc(O)c(C(=O)O)c2)C1
2.6 µg/mL (≈ 8.22 µM)	COc1ccc(C(=O)O/N=C(\N)c2ccccn2)cc1[N+](=O)[O-]
0.7 µg/mL (≈ 2.07 µM)	O=C1N=c2ccccc2=C1c1sc(Nc2cccc(O)c2)nc1O
11.8 µg/mL (≈ 37.3 µM)	O=[N+]([O-])c1ccccc1-c1ccc(C(=S)N2CCCCC2)o1
< 0.7 µg/mL	COc1cc2ccccc2cc1C(=O)Nc1ccc2oc(=O)ccc2c1

solubility kinetic	SMILES
41.4 µg/mL (≈ 138 µM)	O=C1CSC(c2cccc([N+](=O)[O-])c2)N1c1ccccc1 (stereo unspecified)
> 49.4 µg/mL	COc1cc(C(=O)Nc2ccc(C(=O)O)cc2)ccc1OC(C)=O
18.5 µg/mL (≈ 56 µM)	O=C(COC(=O)/C=C/c1cccc([N+](=O)[O-])c1)NCc1ccco1
< 0.2 µg/mL	Cc1cc(C)c2nc(NC(=O)c3ccc([N+](=O)[O-])o3)sc2c1
16.1 µg/mL (≈ 43.2 µM)	COc1ccc(C=NOCC(=O)OCC(=O)Nc2ccc(OC)cc2)cc1
< 0.2 µg/mL	Cc1cc(C)c2nc(Cl)c(C3NC(=O)c4ccccc4N3)cc2c1 (stereo unspecified)
46.6 µg/mL (≈ 146 µM)	CC(C)CCn1c(N2CCCC2)nc2c1c(=O)n(C)c(=O)n2C
1.6 µg/mL (≈ 5.63 µM)	CC(C)CC(=O)c1c[nH]c(C(=O)NCc2ccccc2)c1
> 53 µg/mL	CCN1CCN(CC(=O)N2c3ccccc3Sc3ccccc32)CC1
19.9 µg/mL (≈ 69.2 µM)	CC(c1ccccc1)N1CCc2[nH]c(=S)[nH]c(=O)c2C1 (stereo unspecified)
34 µg/mL (≈ 108 µM)	Cc1ccc(OCc2cc(C(=O)NC3CCCCC3)no2)cn1
8.6 µg/mL (≈ 26.7 µM)	O=C(CCCSc1ccc(Cl)cc1)Nc1ccccc1O
42.3 µg/mL (≈ 140 µM)	O=C(NCCCNC(=O)c1ccccn1)c1cccc(F)c1
43.8 µg/mL (≈ 147 µM)	Cc1ccc(Cl)cc1NC(=O)N[C@@H](CC(C)C)C(=O)O
4.4 µg/mL (≈ 13.9 µM)	COc1ccccc1NC(=O)COC(=O)/C=C/c1cccs1
34.3 µg/mL (≈ 142 µM)	CCOC(=O)C(CC(=O)O)NCc1ccco1 (stereo unspecified)
> 36.9 µg/mL	Oc1nc(-c2ccc(Cl)cc2)n2ccncc12
28.1 µg/mL (≈ 147 µM)	Cn1cccc1/C=C(\C#N)C(N)=S
> 40.6 µg/mL	N#CCCN(Cc1ccccc1)C(=O)c1cccs1
5.2 µg/mL (≈ 14.5 µM)	O=C(/C=C/c1ccc(OCc2cccc(Cl)c2)cc1)N1CCOCC1
> 37.5 µg/mL	Cc1cc(=O)[nH]c(NCc2ccc(Cl)cc2)n1

SMILES	solubility kinetic
CCCCCn1c(=O)c(C(=O)Nc2cccc(C)c2)c(O)c2ccccc21	< 0.4 µg/mL
Cc1ccc(S(=O)(=O)N2CCCC2c2cccnc2)cc1 (stereo unspecified)	> 45.4 µg/mL
